For test [1], the target named is T1, CDK2/Cyclin E1 (Homo sapiens, UniProt P24941). The test is described as follows: Caliper LabChip EZ Reader mobility shift assay. Format: biochemical. To be noted: 2.5 nM CDK2/Cyclin E1(14-475), 100 μM ATP, 30 min preincubation; read-out: Caliper Assay (CDK2/CCNE1): IC50. How it is done:
Inhibition of CDK2/Cyclin E1 activity in the presence of compounds of the present disclosure was evaluated using a Caliper LabChip® EZ Reader mobility shift assay. In the assay, activated CDK2/Cyclin E1 catalyzes the phosphorylation of a fluorescently tagged peptide 5-FAM-QSPKKG-CONH2 (PerkinElmer, FL Peptide 18) which induces a difference in capillary electrophoresis mobility. The peptide substrate and product were measured, and the conversion ratio was used to determine the inhibition (as % activity and IC50 values) of CDK2/Cyclin E1. Reactions contained 50 mM HEPES pH 7.5, 10 mM MgCl2, 1 mM EDTA, 2 mM DTT, 0.01% Brij35, 0.5 mg/mL BSA, 0.1% DMSO, 2.5 nM CDK2/Cyclin E1(14-475), 100 μM ATP, and 1.5 μM fluorescent peptide substrate.
Dose titrations of inhibitors in 100% DMSO were combined with 3.25 nM CDK2/Cyclin E1(14-475) and 130 μM of ATP in reaction buffer. The mixtures were incubated for 30 minutes before the addition of fluorescent peptide substrate to initiate the kinase reaction. The final conditions were 2.5 nM CDK2/Cyclin E1(14-475), 100 μM ATP, and 1.5 μM fluorescent peptide. The reactions were stopped after 100 minutes with the addition of EDTA (6 mM final EDTA concentration). The stopped reactions were analyzed on a Caliper LabChip® EZ Reader 11. The conversion ratios were normalized to yield % activity, plotted against compound concentration, and fit to a four-parameter equation to determine the IC50 for each compound.

The test system of a further test is Kuramochi cells RB-WT. The test is described as follows: IncuCyte Kuramochi cell proliferation assay, RB-WT. It is filed as cell-based. As to conditions: 72 hours, cell count. The method in brief: (§1)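 GI50 was derived by curve-fitting DMSO-normalized fold change in nuclear count between 0 and 72 h. Counts came from images of Kuramochi cells carrying mApple-H2B. Compounds were dosed over 10 points at 1/2-log spacing from a 20 µM top concentration.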

The target of test [2] is T1, CDK2/Cyclin E1. Put plainly: ADP-Glo Luminescent Kinase Assay (CDK2/E1-37C). As to conditions: 0.18 nM CDK2/Cyclin E1, 100 μM ATP, Histone H1, 37° C.; read-out: ADPGLO (CDK2/E1-37C): IC50. It is filed as biochemical. The method in brief:
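IC50 fitted by four-parameter equation from ADP-Glo luminescence converted to % activity. Compounds were preincubated 60 min at 37 °C with enzyme, then kinase reaction ran 90 min at 37 °C with 0.18 nM enzyme, 100 μM ATP, Histone H1 ([…]), pH 7.5 HEPES, Mg2+, DTT.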
In general terms: ADP-Glo turns the ADP formed in a reaction into a luminescent signal.

The next test has as its system Kuramochi cells RB-KO. Put plainly: IncuCyte Kuramochi cell proliferation assay, RB-KO. As to conditions: 72 hours, cell count, batch mean. It is filed as cell-based. The method in brief: as §1

Where only a bound is given, the exact number is not on record here.

As for `O=C(c1cncs1)N1C[C@@H](COCc2cccc(-c3ccc(C4(C(F)(F)F)CC4)cc3)n2)C2(CN(CC3CCCO3)C2)C1` (stereo partly drawn) [Compound I-7, ((8S)-2-((tetrahydrofuran-2-yl)methyl)-8-(((6-(4-(1-(trifluoromethyl)cyclopropyl)phenyl)pyridin-2-yl)methoxy)methyl)-2,6-diazaspiro[3.4]octan-6-yl)(thiazol-5-yl)methanone], the IC50 on CDK2/Cyclin E1 [1] and in the test on Kuramochi cells RB-WT was more than 10 µM each time.
For `O=C(c1cncs1)N1C[C@@H](COCc2cccc(-c3ccc(C4CC4)cc3)n2)C2(CN(CC3CCCO3)C2)C1` (stereo partly drawn) [Compound I-8, ((8S)-8-(((6-(4-cyclopropylphenyl)pyridin-2-yl)methoxy)methyl)-2-((tetrahydrofuran-2-yl)methyl)-2,6-diazaspiro[3.4]octan-6-yl)(thiazol-5-yl)methanone], the IC50 at CDK2/Cyclin E1 [1] and with Kuramochi cells RB-WT was more than 10 µM in each case.
For the compound `CC1(C)C[C@@H]1C(=O)N1CC2(CN(CC3CCCO3)C[C@H]2CNC(=O)c2cccc(-c3ccc(C(F)(F)F)cc3)n2)C1` (stereo partly drawn) [Compound I-9, N-(((8R)-2-((S)-2,2-dimethylcyclopropane-1-carbonyl)-6-((tetrahydrofuran-2-yl)methyl)-2,6-diazaspiro[3.4]octan-8-yl)methyl)-6-(4-(trifluoromethyl)phenyl)picolinamide], the IC50 on CDK2/Cyclin E1 [1] and in the test with Kuramochi cells RB-WT was more than 10 µM in each case.
As to `COc1ccccc1-c1cccc(C(=O)NC[C@@H]2CN(CC3CCCO3)CC23CN(C(=O)[C@H]2CC2(C)C)C3)n1` (stereo partly drawn) [Compound I-10, N-(((8R)-2-((S)-2,2-dimethylcyclopropane-1-carbonyl)-6-((tetrahydrofuran-2-yl)methyl)-2,6-diazaspiro[3.4]octan-8-yl)methyl)-6-(2-methoxyphenyl)picolinamide], the figures for the IC50 at CDK2/Cyclin E1 [1] and in the test with Kuramochi cells RB-WT were 1 to 10 µM and more than 10 µM, respectively.
Taken in the same sequence, the figures for `O=C(c1cncs1)N1C[C@@H](COCc2cccc(-c3ccc(C(F)(F)F)cc3)n2)C2(CN(CC3CCCO3)C2)C1` (stereo partly drawn) [Compound I-11, ((8S)-2-((Tetrahydrofuran-2-yl)methyl)-8-(((6-(4-(trifluoromethyl)phenyl)pyridin-2-yl)methoxy)methyl)-2,6-diazaspiro[3.4]octan-6-yl)(thiazol-5-yl)methanone] were more than 10 µM and more than 10 µM.
Regarding `O=C([C@H]1CC1(F)F)N1CC2(CN(Cc3cncs3)C[C@H]2COCc2cccc(-c3ccc(C(F)(F)F)cc3)n2)C1` [Compound I-12, ((R)-2,2-difluorocyclopropyl)((S)-6-(thiazol-5-ylmethyl)-8-(((6-(4-(trifluoromethyl)phenyl)pyridin-2-yl)methoxy)methyl)-2,6-diazaspiro[3.4]octan-2-yl)methanone], the IC50 at CDK2/Cyclin E1 [1] and with Kuramochi cells RB-WT was more than 10 µM throughout.
For `CC1(C)C[C@@H]1C(=O)N1CC2(CN(C(=O)c3cncs3)C[C@H]2COC(COC2CCC(F)(F)CC2)c2cccc(C3CCOCC3)n2)C1` (stereo partly drawn) [Compound I-13, ((8S)-8-((2-((4,4-difluorocyclohexyl)oxy)-1-(6-(tetrahydro-2H-pyran-4-yl)pyridin-2-yl)ethoxy)methyl)-2-((S)-2,2-dimethylcyclopropane-1-carbonyl)-2,6-diazaspiro[3.4]octan-6-yl)(thiazol-5-yl)methanone], the results for the IC50 at CDK2/Cyclin E1 [1] and in the test on Kuramochi cells RB-WT were 0.1 to 1 µM and more than 10 µM, respectively.
Take `CC(OC[C@@H]1CN(C(=O)c2cncs2)CC12CN(C(=O)[C@H]1CC1(C)C)C2)c1cccc(C2CCOCC2)n1` (stereo partly drawn) [Compound I-14, ((S)-2-((S)-2,2-dimethylcyclopropane-1-carbonyl)-8-((1-(6-(tetrahydro-2H-pyran-4-yl)pyridin-2-yl)ethoxy)methyl)-2,6-diazaspiro[3.4]octan-6-yl)(thiazol-5-yl)methanone]: the results for the IC50 on CDK2/Cyclin E1 [1] and in the test on Kuramochi cells RB-WT were 1 to 10 µM and more than 10 µM, respectively.
As to `O=C(c1cncs1)N1C[C@@H](COCc2cccc(-c3ccc(C(F)(F)F)cc3)n2)C2(CN(CC3COC3)C2)C1` [Compound I-15, (S)-(2-(oxetan-3-ylmethyl)-8-(((6-(4-(trifluoromethyl)phenyl)pyridin-2-yl)methoxy)methyl)-2,6-diazaspiro[3.4]octan-6-yl)(thiazol-5-yl)methanone], the IC50 on CDK2/Cyclin E1 [1] and in the test on Kuramochi cells RB-WT was more than 10 µM throughout.
For the compound `CC(C)(C)CN1CC2(C1)CN(C(=O)c1cncs1)C[C@H]2COCc1cccc(-c2ccc(C(F)(F)F)cc2)n1` [Compound I-16, (S)-(2-neopentyl-8-(((6-(4-(trifluoromethyl)phenyl)pyridin-2-yl)methoxy)methyl)-2,6-diazaspiro[3.4]octan-6-yl)(thiazol-5-yl)methanone], the values for the IC50 on CDK2/Cyclin E1 [1] and in the test with Kuramochi cells RB-WT were more than 10 µM and 5 to 10 µM, respectively.
For `CC(C)(C)CN1CC2(C1)CN(C(=O)c1cnccn1)C[C@H]2COCc1cccc(-c2ccc(C(F)(F)F)cc2)n1` [Compound I-17, (S)-(2-neopentyl-8-(((6-(4-(trifluoromethyl)phenyl)pyridin-2-yl)methoxy)methyl)-2,6-diazaspiro[3.4]octan-6-yl)(pyrazin-2-yl)methanone], the IC50 on CDK2/Cyclin E1 [1] and in the test with Kuramochi cells RB-WT was more than 10 µM in each case.
Take `CC(C)(C)OC(=O)c1c(COCC2CN(C(=O)c3cnn(Cc4ccc(F)cc4)c3)CC23CN(C(=O)[C@H]2CC2(C)C)C3)cccc1C1CCC(F)(F)CC1` (stereo partly drawn) [I′-79, tert-butyl 2-(4,4-difluorocyclohexyl)-6-(((2-((S)-2,2-dimethylcyclopropane-1-carbonyl)-6-(1-(4-fluorobenzyl)-1H-pyrazole-4-carbonyl)-2,6-diazaspiro[3.4]octan-8-yl)methoxy)methyl)benzoate]: the IC50 on CDK2/Cyclin E1 [2] is not above 0.5 µM; with Kuramochi cells RB-WT, more than 10 µM; in the test on Kuramochi cells RB-KO it was more than 10 µM.
As for `CC1(C)C[C@@H]1C(=O)N1CC2(CN(C(=O)c3cnn(Cc4ccc(F)cc4)c3)CC2COCc2cccc(C3CCC(F)(F)CC3)c2C(=O)O)C1` (stereo partly drawn) [I′-80, 2-(4,4-difluorocyclohexyl)-6-(((2-((S)-2,2-dimethylcyclopropane-1-carbonyl)-6-(1-(4-fluorobenzyl)-1H-pyrazole-4-carbonyl)-2,6-diazaspiro[3.4]octan-8-yl)methoxy)methyl)benzoic acid], the IC50 on CDK2/Cyclin E1 [2] was not above 0.5 µM; with Kuramochi cells RB-WT it was 0.5 to 5 µM; in the test on Kuramochi cells RB-KO, more than 10 µM.
As for `CC1(C)C[C@@H]1C(=O)N1CC2(CN(C(=O)c3cnn(Cc4ccc(F)cc4)c3)CC2COCc2cccc(Br)c2C(=O)O)C1` (stereo partly shown) [I′-81], the IC50 on CDK2/Cyclin E1 [2] was 0.5 to 5 µM; with Kuramochi cells RB-WT, more than 10 µM; in the test on Kuramochi cells RB-KO it was more than 10 µM.
Regarding `O=C(O)c1c(O)cc(COCC2CN(C(=O)c3cnn(Cc4ccc(C(F)(F)F)cc4)c3)CC23CN(C(=O)C2(C(F)(F)F)CC2)C3)cc1C1CCC(F)(F)CC1` (stereo not shown) [I′-82], the IC50 is 5 to 10 µM on CDK2/Cyclin E1 [2], more than 10 µM in the test on Kuramochi cells RB-WT and more than 10 µM in the test with Kuramochi cells RB-KO.
For the compound `CC(C)(C)OC(=O)c1c(COCC2CN(C(=O)c3cnn(Cc4ccc(F)cc4C(F)(F)F)c3)CC23CN(C(=O)C2(C(F)(F)F)CC2)C3)cccc1C1CCC(C(F)(F)F)CC1` (stereo not shown) [I′-83], the figures for the IC50 at CDK2/Cyclin E1 [2], in the test on Kuramochi cells RB-WT and in the test with Kuramochi cells RB-KO were 0.5 to 5 µM, more than 10 µM and more than 10 µM, respectively.
Take `CC1(C)C[C@@H]1C(=O)N1CC2(CN(C(=O)c3cnn(Cc4ccc(F)cc4)c3)CC2COCc2cccc(C3CCC(C(F)(F)F)CC3)c2C(N)=O)C1` (stereo partly drawn) [I′-84, 2-(((2-((S)-2,2-dimethylcyclopropane-1-carbonyl)-6-(1-(4-fluorobenzyl)-1H-pyrazole-4-carbonyl)-2,6-diazaspiro[3.4]octan-8-yl)methoxy)methyl)-6-(4-(trifluoromethyl)cyclohexyl)benzamide]: the IC50 at CDK2/Cyclin E1 [2] was not above 0.5 µM; in the test on Kuramochi cells RB-WT it was more than 10 µM; in the test on Kuramochi cells RB-KO, more than 10 µM.
`CC1(C)C[C@@H]1C(=O)N1CC2(CN(C(=O)c3cnn(Cc4ccc(F)cc4)c3)CC2COCc2cccc(C3CCC(C(F)(F)F)CC3)c2C(=O)O)C1` (stereo partly drawn) [I′-85, 2-(((2-((S)-2,2-dimethylcyclopropane-1-carbonyl)-6-(1-(4-fluorobenzyl)-1H-pyrazole-4-carbonyl)-2,6-diazaspiro[3.4]octan-8-yl)methoxy)methyl)-6-(4-(trifluoromethyl)cyclohexyl)benzoic acid]: the IC50 on CDK2/Cyclin E1 [2] was not above 0.5 µM; in the test with Kuramochi cells RB-WT, not above 0.5 µM; with Kuramochi cells RB-KO, 5 to 10 µM.
Turning to `N#Cc1c(COCC2CN(C(=O)c3cnn(Cc4ccc(C(F)(F)F)cc4)c3)CC23CN(C(=O)C2(C(F)(F)F)CC2)C3)cccc1C1CCC(C(F)(F)F)CC1` (stereo not shown) [I′-86], the IC50 on CDK2/Cyclin E1 [2] is 0.5 to 5 µM; in the test with Kuramochi cells RB-WT, more than 10 µM; in the test with Kuramochi cells RB-KO, more than 10 µM.

For the origin of these results see patent publication US20260034123A1 (Cedilla Therapeutics, Inc., priority 2022, published 2026).
